In US20250002493A1, “PYRIDONE COMPOUND AND PREPARATION METHOD THEREFOR, PHARMACEUTICAL COMPOSITION AND USE” (NANJING CHINA-AUSTRALIA INSTITUTE OF TRANSLATIONAL MEDICINE …, priority 2022, published 2025):

Columns and labels:
[1] = system: PANC1 human pancreatic cancer; test: WST-8 cell proliferation assay, PANC1; assay type: cell-based; conditions: PANC-1, 72 hours
Description: (§1) The effects of the compounds provided by the present invention on the proliferation of different cancer cell lines were tested using the WST-8 assay kit. This method is based on the reduction of WST-8 by dehydrogenase in live cells to form a highly water-soluble yellow Formazan dye. Cells were seeded in a 96-well plate and cultured with the test compounds at 37° C. under 5% CO2 for 72 hours. Afterwards, 10% (v/v) WST-8 was added, and the samples were incubated for an additional 2-3 hours. The absorbance of the samples was measured at 450 nm using a Tecan microplate reader, and the concentration of the compound that inhibited 50% of cell proliferation (IC50, nM) was calculated. The activity of the compounds provided by the present invention was determined in three cancer cell lines: MDA-MB-231 human breast cancer cells, SK-OV-3 human ovarian cancer cells, and PANC1 human pancreatic cancer.

[2] = target: BIR3 domain of human XIAP (residues 238-358) (Homo sapiens (Human), UniProt P98170); test: Fluorescence polarization competitive binding to XIAP BIR3; conditions: FP, peptide probe 5 nM, XIAP BIR3 30 nM, 1 hour room temperature
BIR3 domain of human XIAP (residues 238-358), sequence (P98170 238-358): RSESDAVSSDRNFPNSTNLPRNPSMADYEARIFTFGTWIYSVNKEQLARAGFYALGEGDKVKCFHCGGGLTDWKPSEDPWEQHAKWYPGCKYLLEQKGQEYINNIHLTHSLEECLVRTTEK
Description: (§2) The binding affinity of the compounds provided by the present invention to IAP proteins was determined using a fluorescence polarization method (Nikolovska-Colesak et al, Anal. Biochem. 2004, 332:261-73). The recombinant BIR3 domains of human XIAP (residues 238-358), human cIAP1 (residues 255-364) and human cIAP2 (residues 236-342) fusing GST-tags were expressed in E. coli and purified using glutathione agarose 4B affinity chromatography and gel filtration chromatography. A 5-Fam fluorescently modified peptide probe (AbuRPFK(5-Fam)-NH2) was used to test the competitive binding ability of the compounds to the BIR3 domains of XIAP, cIAP1 and cIAP2. The peptide probe (5 nM), XIAP BIR3 (30 nM) or cIAP1 BIR3 (5 nM) or cIAP2 BIR3 (10 nM), and serial diluted compounds were mixed in a test buffer (100 mM potassium phosphate pH 7.5, 100 μg/ml bovine gamma globulin, 0.02% sodium azide, and 1 mM DTT). After incubating the samples at room temperature for 1 hour, the fluorescence polarization values were read using a Tecan microplate reader (FP excitation wavelength 485 nm, […] wavelength 530 nm). The IC50 value was obtained by fitting the curve using nonlinear least square regression with the Graphpad Prism software. The inhibition constant Ki, values were calculated using the Equation Ki, [I]50/([L]50/Kd+[P]0/Kd+1).

[3] = target: BIR3 domain of human cIAP2 (residues 236-342) (Homo sapiens (Human), UniProt Q13489); test: Fluorescence polarization competitive binding to cIAP2 BIR3; conditions: FP, peptide probe 5 nM, cIAP2 BIR3 10 nM, 1 hour room temperature
BIR3 domain of human cIAP2 (residues 236-342), sequence (Q13489 236-342): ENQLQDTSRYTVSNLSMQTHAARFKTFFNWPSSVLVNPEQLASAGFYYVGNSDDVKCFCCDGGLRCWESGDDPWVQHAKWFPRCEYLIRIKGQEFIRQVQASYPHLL
Description: as §2

[4] = system: MDA-MB-231 human breast cancer cells; test: WST-8 cell proliferation assay, MDA-MB-231; assay type: cell-based; conditions: 72 hours
Description: as §1

[5] = system: SK-OV-3 human ovarian cancer cells; test: WST-8 cell proliferation assay, SK-OV-3; assay type: cell-based; conditions: 72 hours, read-out: SKOV-3 IC50
Description: as §1

[6] = target: BIR3 domain of human cIAP1 (residues 255-364) (Homo sapiens (Human), UniProt Q13490); test: Fluorescence polarization competitive binding to cIAP1 BIR3; conditions: FP, peptide probe 5 nM, cIAP1 BIR3 5 nM, 1 hour room temperature
BIR3 domain of human cIAP1 (residues 255-364), sequence (Q13490 255-364): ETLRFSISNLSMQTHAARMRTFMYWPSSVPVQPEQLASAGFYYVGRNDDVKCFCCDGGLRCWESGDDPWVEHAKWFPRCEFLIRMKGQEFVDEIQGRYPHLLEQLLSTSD
Description: as §2

[7] = system: MDA-MB-231 cancer cells; test: Inhibitor-induced apoptosis, flow cytometry with Annexin V and propidium iodide; assay type: cell-based, human; conditions: 3 hours
Description: After treating the cells with 10 nM and 100 nM concentrations of the compounds for 3 hours, the induction of apoptosis was analyzed using flow cytometry with Annexin V and propidium iodide staining.

SMILES	IC50 [1]	Ki [2]	Ki [3]	IC50 [4]	IC50 [5]	Ki [6]	Proportion of apoptotic cells ([7]; Drug concentration 10 nM)	Proportion of apoptotic cells ([7]; Drug concentration 100 nM)
CN[C@@H](C)C(=O)N[C@H](C(=O)N1CCc2cc(=O)n(Cc3ccc(F)cc3F)cc21)C1CCCCC1 [Compound I-2-4]	75 nM	73.2 nM	3.2 nM	8 nM	13 nM	1.3 nM	32%	45%
CN[C@@H](C)C(=O)N[C@H](C(=O)N1CCc2cc(=O)n(Cc3ccc(F)cc3)cc21)C(C)(C)C [Compound I-2-11]	38 nM	31.4 nM	1.7 nM	5 nM	4 nM	0.7 nM	35%	48%
[2H]C([2H])([2H])N[C@@H](C)C(=O)N[C@H](C(=O)N1CCc2cc(=O)n(Cc3ccc(F)cc3)cc21)C1CCCCC1 [Compound I-2-15]	64 nM	76.9 nM	4 nM	9 nM	12 nM	1 nM		
CN[C@@H](C)C(=O)N[C@H](C(=O)N1CCc2cc(=O)n(Cc3ccc(F)cc3F)cc21)C(C)(C)C [Compound I-2-20]	33 nM	21.5 nM	1.8 nM	3 nM	1 nM	1 nM	39%	53%
[2H]C([2H])([2H])N[C@@H](C)C(=O)N[C@H](C(=O)N1CCc2cc(=O)n(Cc3ccc(F)cc3F)cc21)C(C)(C)C [Compound I-2-22]	34 nM	21 nM	1.5 nM	3 nM	2 nM	0.8 nM	38%	52%
CN[C@@H](C)C(=O)N[C@H](C(=O)N1CCc2cc(=O)n(Cc3ccc(F)cc3O)cc21)C(C)(C)C [Compound I-2-23]	67 nM	53.6 nM	2.3 nM	9 nM	5 nM	1 nM	35%	50%
CN[C@@H](C)C(=O)N[C@H](C(=O)N1CC(C)(C)c2cc(=O)n(Cc3ccc(F)cc3F)cc21)C(C)(C)C [Compound I-2-26]	89 nM	70.9 nM	6.9 nM	21 nM	7 nM	1.4 nM	32%	47%
CN[C@@H](C)C(=O)N[C@H](C(=O)N1CC(C)(C)c2cc(=O)n(Cc3ccc(F)cc3F)cc21)C1CCCCC1 [Compound I-2-27]	96 nM	208 nM	5.7 nM	18 nM	19 nM	1.9 nM	31%	46%
[2H]C([2H])([2H])N[C@@H](C)C(=O)N[C@H](C(=O)N1CC(C)(C)c2cc(=O)n(Cc3ccc(F)cc3F)cc21)C(C)(C)C [Compound I-2-28]	124 nM	185 nM	6.7 nM	20 nM	23 nM	1.9 nM	29%	47%
[2H]C([2H])([2H])N[C@@H](C)C(=O)N[C@H](C(=O)N1CC(C)(C)c2cc(=O)n(Cc3ccc(F)cc3)cc21)C(C)(C)C [Compound I-2-29]	165 nM	568 nM	12.7 nM	29 nM	32 nM	3 nM	20%	42%
CN[C@@H](C)C(=O)N[C@H](C(=O)N1CC(C)(C)c2cc(=O)n(Cc3ccc(F)cc3O)cc21)C(C)(C)C [Compound I-2-32]	189 nM	343 nM	10 nM	28 nM	29 nM	2.2 nM	21%	43%
CN[C@@H](C)C(=O)N[C@H](C(=O)N1CC(C)(C)c2cc(=O)n(Cc3ccc(F)cc3)cc21)C(C)(C)C [Compound I-2-33]	192 nM	288 nM	7.9 nM	24 nM	27 nM	1.9 nM	23%	45%
C[C@H](N)C(=O)N[C@H](C(=O)N1CCc2cc(=O)n(Cc3ccc(F)cc3F)cc21)C(C)(C)C [Compound I-2-34]		24.1 nM	1.5 nM			1.1 nM		
[2H]C([2H])([2H])N[C@@H](C)C(=O)N[C@H](C(=O)N1CCc2cc(=O)n(Cc3ccc(F)cc3F)cc21)C(C)(C)C [Compound I-2-35]		33.4 nM	2.6 nM			1.2 nM		
CN[C@@H](C)C(=O)N[C@H](C(=O)N1CCc2c1cc(Cc1ccc(F)cc1)c(=O)n2C)C1CCCCC1 [Compound I-3-1, (S)-N-((S)-1-cyclohexyl-2-(6-(4-fluorobenzyl)-4-methyl-5-oxo-2,3,4,5-tetrahydro-1H-pyrrolo[3,2-b]pyridine-1-yl)-2-oxyethyl)-2-(methylamino)propanamide]	58 nM	30.7 nM	2.6 nM	5 nM	4 nM	1.2 nM	36%	48%
CN[C@@H](C)C(=O)N[C@H](C(=O)N1CCc2c1cc(Cc1ccc(F)cc1)c(=O)n2C)C(C)(C)C [Compound I-3-2]	43 nM	18.4 nM	2.2 nM	2 nM	2 nM	1.2 nM	38%	52%
CN[C@@H](C)C(=O)N[C@H](C(=O)N1CCc2c1cc(Cc1ccc(F)cc1F)c(=O)n2C)C(C)(C)C [Compound I-3-3]	37 nM	13.7 nM	2.2 nM	2 nM	1 nM	1.4 nM	43%	55%
CCn1c2c(cc(Cc3ccc(F)cc3F)c1=O)N(C(=O)[C@@H](NC(=O)[C@H](C)NC)C(C)(C)C)CC2 [Compound I-3-6]		12.3 nM	1.6 nM			0.8 nM		
CN[C@@H](C)C(=O)N[C@H](C(=O)N1CC(C)(C)c2c1cc(Cc1ccc(F)cc1F)c(=O)n2C)C(C)(C)C [Compound I-3-7]		45.2 nM	5.2 nM			1.6 nM		
CN[C@@H](C)C(=O)N[C@H](C(=O)N1CCc2c1cc(Cc1ccc(F)cc1F)c(=O)n2CC(F)(F)F)C(C)(C)C [Compound I-3-8]		7.1 nM	2.1 nM			1.3 nM		
CN[C@@H](C)C(=O)N[C@H](C(=O)N1CCc2[nH]c(=O)c(Cc3ccc(F)cc3)cc21)C1CCCCC1 [Compound I-4-1, (S)-N-((S)-1-cyclohexyl-2-(6-(4-fluorobenzyl)-5-oxo-2,3,4,5-tetrahydro-1H-pyrrolo[3,2-b]pyridine-1-yl)-2-oxyethyl)-2-(methylamino)propanamide]	53 nM	19.9 nM	2.7 nM	6 nM	1 nM	1.3 nM	36%	49%
CN[C@@H](C)C(=O)N[C@H](C(=O)N1CCc2[nH]c(=O)c(Cc3ccc(F)cc3)cc21)C(C)(C)C [Compound I-4-3]		8.2 nM	1.9 nM			1 nM		
CN[C@@H](C)C(=O)N[C@H]1CN(C(=O)CC(C)C)CC[C@H]2CC[C@@H](C(=O)NC(c3ccccc3)c3ccccc3)N2C1=O [SM-406, reference compound]	241 nM	25.2 nM	5.8 nM	33 nM	40 nM		6%	34%
